The text below walks through data of PMC4522185 (ChemistryOpen, 2015).

For series [1], the target named is human 20S proteasome (chymotrypsin-like activity, with PA28 activator) (Homo sapiens, UniProt P28074). The experiment in a line: fluorogenic suc-LLVY-AMC cleavage. In kind it is biochemical.
Series [2] can be described thus: physchem. The conditions noted are these: pbs, pH 7.4, aqueous buffer.
Series [3] can be described thus: physchem. The following applies: ch3cn+pbs (1+1), pH 7.4.
Series [4] in a line: physchem. The conditions noted are these: ch3cn+pbs (1+1), pH 7.4. This is another data set of the same source.
The target of series [5] is Mtb 20S open-gate proteasome (Mycobacterium tuberculosis, UniProt P9WHT9). The experiment in a line: biochemical.
Mtb 20S open-gate proteasome, sequence (P9WHT9 whole entry): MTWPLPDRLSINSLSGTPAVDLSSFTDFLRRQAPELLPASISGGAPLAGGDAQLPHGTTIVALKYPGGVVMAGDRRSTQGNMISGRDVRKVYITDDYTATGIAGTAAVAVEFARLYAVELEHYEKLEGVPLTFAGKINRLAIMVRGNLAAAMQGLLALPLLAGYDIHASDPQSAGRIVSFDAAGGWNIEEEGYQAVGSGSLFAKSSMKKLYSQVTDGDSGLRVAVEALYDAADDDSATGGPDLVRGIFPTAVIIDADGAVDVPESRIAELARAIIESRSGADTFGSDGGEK
Mtb 20S open-gate proteasome, sequence (P9WHU1 whole entry partner): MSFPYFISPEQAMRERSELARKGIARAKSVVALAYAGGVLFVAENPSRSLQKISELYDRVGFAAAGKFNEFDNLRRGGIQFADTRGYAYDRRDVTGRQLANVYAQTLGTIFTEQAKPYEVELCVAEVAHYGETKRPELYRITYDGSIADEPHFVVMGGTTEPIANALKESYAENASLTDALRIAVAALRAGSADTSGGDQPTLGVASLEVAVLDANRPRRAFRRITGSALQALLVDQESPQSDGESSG
A short description of series [6]: physchem. The conditions noted are these: pbs, pH 7.4, aqueous buffer. This is another data set of the same source.

SMILES strings stand for the structures. In brackets after ≈: the same amount, converted by molar mass. A value given as a limit tells only on which side of the number the result lay.

human 20S proteasome (chymotrypsin-like activity, with PA28 activator), sequence (P28074 60-263): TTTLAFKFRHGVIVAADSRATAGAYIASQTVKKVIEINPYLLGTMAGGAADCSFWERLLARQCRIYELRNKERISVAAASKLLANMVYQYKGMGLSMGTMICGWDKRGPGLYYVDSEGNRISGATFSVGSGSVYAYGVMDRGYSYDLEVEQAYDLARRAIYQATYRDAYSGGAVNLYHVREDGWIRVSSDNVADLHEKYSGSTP
human 20S proteasome (chymotrypsin-like activity, with PA28 activator), sequence (P25786 whole entry partner): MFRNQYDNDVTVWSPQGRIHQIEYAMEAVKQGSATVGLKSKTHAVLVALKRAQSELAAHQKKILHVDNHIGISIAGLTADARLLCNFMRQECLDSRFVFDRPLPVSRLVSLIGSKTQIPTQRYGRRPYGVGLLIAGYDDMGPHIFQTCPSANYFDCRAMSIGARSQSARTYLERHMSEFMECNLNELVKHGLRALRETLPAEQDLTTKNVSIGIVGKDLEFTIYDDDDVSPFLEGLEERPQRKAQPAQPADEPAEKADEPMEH

`O=c1oc(-c2ccccc2)ns1` [compound 1, 5-Phenyl-1,3,4-oxathiazol-2-one] showed an IC50 in series [1] of 6.2 µM. In other words, the single-digit micromolar range.

In turn, `O=c1oc(-c2cnccn2)ns1` [compound 2, 5-(Pyrazin-2-yl)-1,3,4-oxathiazol-2-one] yielded an IC50 in series [1] of 4.5 µM.

For the compound `COc1cccc(-c2nsc(=O)o2)c1` [compound 3, 5-(3-Methoxyphenyl)-1,3,4-oxathiazol-2-one], the IC50 in series [1] worked out at 15 µM.

Compound `O=c1oc(-c2cccc(F)c2)ns1` [compound 4, 5-(3-Fluorophenyl)-1,3,4-oxathiazol-2-one] came in with an IC50 in series [1] of 11 µM.

In series [1], `O=c1oc(CCCl)ns1` [compound 5, 5-(2-Chloroethyl)-1,3,4-oxathiazol-2-one] gave an IC50 greater than 100 µM.

On to `O=c1oc(C2CC2)ns1` [compound 6, 5-Cyclopropyl-1,3,4-oxathiazol-2-one], for which the IC50 in series [1] is greater than 100 µM.

On to `CCCCCc1nsc(=O)o1` [compound 7, 5-Pentyl-1,3,4-oxathiazol-2-one], for which the IC50 in series [1] is greater than 100 µM.

The compound `O=c1oc(CF)ns1` [compound 8, 5-(Fluoromethyl)-1,3,4-oxathiazol-2-one] returned an IC50 in series [1] of 1.4 µM.

In turn, `O=c1oc(Cc2ccccc2)ns1` [compound 9, 5-Benzyl-1,3,4-oxathiazol-2-one] yielded an IC50 in series [1] of 1.9 µM.

Regarding `COc1cccc(Cc2nsc(=O)o2)c1` [compound 10, 5-(3-Methoxybenzyl)-1,3,4-oxathiazol-2-one], the concentration for half-maximal inhibition (IC50) in series [1] was greater than 100 µM.

`O=Cc1ccc(OCc2nsc(=O)o2)cc1` [compound 11, 4-((2-Oxo-1,3,4-oxathiazol-5-yl)methoxy)benzaldehyde]: the IC50 in series [1] was greater than 100 µM.

`O=c1oc(Cc2cccc3ccccc23)ns1` [compound 12, 5-(Naphthalen-1-ylmethyl)-1,3,4-oxathiazol-2-one] returned an IC50 in series [1] greater than 100 µM.

In turn, `O=c1oc(Cc2ccccc2C(F)(F)F)ns1` [compound 13, 5-(2-(Trifluoromethyl)benzyl)-1,3,4-oxathiazol-2-one] yielded an IC50 in series [1] of 8.7 µM.

On to `O=c1oc(C(O)c2ccccc2)ns1` (stereo not shown) [compound 14, 5-(Hydroxy(phenyl)methyl)-1,3,4-oxathiazol-2-one], for which, in series [1], the IC50 turned out to be 20 µM. Compared with the last compound, the IC50 is about 2.3-fold higher.

In series [1], `O=c1oc(CCc2ccccc2)ns1` [compound 15, 5-Phenethyl-1,3,4-oxathiazol-2-one] displayed an IC50 of 6.7 µM.

In series [1], `CO[C@H](c1ccccc1)c1nsc(=O)o1` [compound 16, (R)-5-(Methoxy(phenyl)methyl)-1,3,4-oxathiazol-2-one] had an IC50 of 5.8 µM.

In the case of `O=c1oc(/C=C/c2ccc(C(F)(F)F)cc2)ns1` [compound 18, (E)-5-(4-(Trifluoromethyl)styryl)-1,3,4-oxathiazol-2-one], the solubility at 18 h in the series “physchem [2]” was found to be 0.1 µM (≈ 0.0273 µg/mL). Besides, the IC50 in series [1] is greater than 100 µM.

Take `C=Cc1nsc(=O)o1` [compound 21, 5-Vinyl-1,3,4-oxathiazol-2-one]: the midpoint of inhibition in series [1], the IC50, lay at 9.1 µM.

`O=c1oc(/C=C/C(F)(F)F)ns1` [compound 22, (E)-5-(3,3,3-Trifluoroprop-1-en-1-yl)-1,3,4-oxathiazol-2-one] gave a share remaining at 24 h, 50 µM in “physchem [3]” of 79.9%. Also, in the series “physchem [2]”, the solubility at 18 h stood at 44.1 µM (≈ 8.69 µg/mL). For the same compound, the IC50 in series [1] is greater than 100 µM.

For the compound `O=c1oc(/C(=C/c2ccccc2)c2ccccc2)ns1` [compound 23, (E)-5-(1,2-Diphenylvinyl)-1,3,4-oxathiazol-2-one], the IC50 in series [1] is 14 µM.

In turn, `O=c1onc(-c2ccccc2)o1` [compound 24, 3-Phenyl-1,4,2-dioxazol-5-one] yielded a fraction remaining at 24 h, 50 µM in the series “physchem [3]” of 8.5%. In the series “physchem [2]”, this compound yielded a solubility at 18 h of 7.6 µM (≈ 1.24 µg/mL). In series [1], this compound came in with an IC50 greater than 100 µM.

With `O=c1onc(/C=C/c2ccccc2)o1` [compound 25], the solubility at 18 h in the series “physchem [2]” is 12.3 µM (≈ 2.33 µg/mL).

In the case of `CC(C)c1ccc(/C=C/c2nsc(=O)o2)cc1` [compound 29, (E)-5-(4-Isopropylstyryl)-1,3,4-oxathiazol-2-one], the fraction remaining at 24 h, 50 µM in the series “physchem [4]” stood at 99.8%. Also, the IC50 was 1.7 µM in series [5] and 14.5 µM in series [1].

Take `Cc1ccc(/C=C/c2nsc(=O)o2)cc1` [compound 30, (E)-5-(4-Methylstyryl)-1,3,4-oxathiazol-2-one]: the fraction remaining at 24 h, 50 µM in the series “physchem [4]” was found to be 96%. In addition, the figures for the IC50 in series [5] and in series [1] were 1 µM and greater than 100 µM, respectively.

Turning to `CCc1ccc(/C=C/c2nsc(=O)o2)cc1` [compound 31, (E)-5-(4-Ethylstyryl)-1,3,4-oxathiazol-2-one], the share remaining at 24 h, 50 µM in “physchem [4]” was determined as 98.2%. In addition, the IC50 in series [5] was 1.08 µM; in series [1], greater than 100 µM.

`O=c1oc(/C=C/c2ccc(OC(F)(F)F)cc2)ns1` [compound 32, (E)-5-(4-(Trifluoromethoxy)styryl)-1,3,4-oxathiazol-2-one] came in with a fraction remaining at 24 h, 50 µM in the series “physchem [4]” of 94.8%. The IC50 in series [5] was 0.78 µM; in series [1], greater than 100 µM.

As for `CCOC(=O)c1ccc(/C=C/c2nsc(=O)o2)cc1` [compound 33, (E)-Ethyl 4-(2-(2-oxo-1,3,4-oxathiazol-5-yl)vinyl)benzoate], the fraction remaining at 24 h, 50 µM in “physchem [4]” is 91.1%. Besides, the IC50 is 0.475 µM in series [5] and greater than 100 µM in series [1].

Consider `O=C(c1ccccc1)c1ccc(/C=C/c2nsc(=O)o2)cc1` [compound 34, (E)-5-(4-Benzoylstyryl)-1,3,4-oxathiazol-2-one], for which, in the series “physchem [4]”, the amount remaining at 24 h, 50 µM came to 96.1%. The IC50 in series [5] came out at 1.19 µM; in series [1], 87 µM.

For the compound `COC(=O)c1ccc(/C=C/c2nsc(=O)o2)cc1` [compound 35, (E)-Methyl 4-(2-(2-oxo-1,3,4-oxathiazol-5-yl)vinyl)benzoate], the share remaining at 24 h, 50 µM in “physchem [4]” was determined as 97.3%. For the same compound, the IC50 was 0.415 µM in series [5] and 27.5 µM in series [1].

As to `O=c1oc(/C=C/c2ccc([N+](=O)[O-])cc2)ns1` [compound 36, (E)-5-(4-Nitrostyryl)-1,3,4-oxathiazol-2-one], the fraction remaining at 24 h, 50 µM in the series “physchem [4]” was determined as 96.9%. Further, the values for the IC50 in series [5] and in series [1] were 1.4 µM and 26 µM, respectively.

In “physchem [4]”, `N#Cc1ccc(/C=C/c2nsc(=O)o2)cc1` [compound 37, (E)-4-(2-(2-Oxo-1,3,4-oxathiazol-5-yl)vinyl)benzonitrile] displayed a share remaining at 24 h, 50 µM of 95.4%. Moreover, the results for the IC50 in series [5] and in series [1] were 0.495 µM and 41.5 µM, respectively.

On to `O=Cc1ccc(/C=C/c2nsc(=O)o2)cc1` [compound 38, (E)-4-(2-(2-Oxo-1,3,4-oxathiazol-5-yl)vinyl)benzaldehyde], for which the amount remaining at 24 h, 50 µM in the series “physchem [4]” turned out to be 91.4%. Besides, the IC50 was 0.695 µM in series [5] and 32.5 µM in series [1].

As to `O=c1oc(/C=C/c2ccc(Cl)cc2)ns1` [compound 39, (E)-5-(4-Chlorostyryl)-1,3,4-oxathiazol-2-one], the share remaining at 24 h, 50 µM in “physchem [4]” amounted to 98.2%. The IC50 in series [5] was 0.565 µM; in series [1], greater than 100 µM.

In the series “physchem [4]”, `O=c1oc(/C=C/c2cc(Cl)ccc2Cl)ns1` [compound 40, (E)-5-(2,5-Dichlorostyryl)-1,3,4-oxathiazol-2-one] yielded an amount remaining at 24 h, 50 µM of 98.5%. The IC50 in series [5] is 0.785 µM; in series [1], 50 µM.

In the series “physchem [4]”, `Cc1cccc(/C=C/c2nsc(=O)o2)c1` [compound 41, (E)-5-(3-Methylstyryl)-1,3,4-oxathiazol-2-one] gave a share remaining at 24 h, 50 µM of 98.1%. In addition, the IC50 in series [5] turned out to be 1.6 µM; in series [1] it was 39 µM.

For `CCc1cccc(/C=C/c2nsc(=O)o2)c1` [compound 42, (E)-5-(3-Ethylstyryl)-1,3,4-oxathiazol-2-one], the amount remaining at 24 h, 50 µM in the series “physchem [4]” turned out to be 96.4%. Moreover, the IC50 was 1.45 µM in series [5] and 32.5 µM in series [1].

For `O=c1oc(/C=C/c2cccc(OC(F)(F)F)c2)ns1` [compound 43, (E)-5-(3-(Trifluoromethoxy)styryl)-1,3,4-oxathiazol-2-one], the fraction remaining at 24 h, 50 µM in “physchem [4]” was found to be 96.2%. Further, the IC50 in series [5] was 1.8 µM; in series [1], 39.5 µM.

In “physchem [4]”, `CCOC(=O)c1cccc(/C=C/c2nsc(=O)o2)c1` [compound 44, (E)-Ethyl 3-(2-(2-Oxo-1,3,4-oxathiazol-5-yl)vinyl)benzoate] came in with a fraction remaining at 24 h, 50 µM of 96%. In addition, the IC50 in series [5] is 9.9 µM; in series [1], greater than 100 µM.

For `Cc1ccccc1/C=C/c1nsc(=O)o1` [compound 45, (E)-5-(2-Methylstyryl)-1,3,4-oxathiazol-2-one], the amount remaining at 24 h, 50 µM in “physchem [4]” is 94%. In series [1], this compound came in with an IC50 greater than 100 µM.

In the case of `CCc1ccccc1/C=C/c1nsc(=O)o1` [compound 46, (E)-5-(2-Ethylstyryl)-1,3,4-oxathiazol-2-one], the amount remaining at 24 h, 50 µM in “physchem [4]” is 98%. This compound came in with an IC50 in series [1] greater than 100 µM.

In turn, `O=c1oc(/C=C/c2ccccc2OC(F)(F)F)ns1` [compound 47, (E)-5-(2-(Trifluoromethoxy)styryl)-1,3,4-oxathiazol-2-one] showed a fraction remaining at 24 h, 50 µM in the series “physchem [4]” of 95.7%. The IC50 in series [1] was greater than 100 µM.

`CCOC(=O)c1ccccc1/C=C/c1nsc(=O)o1` [compound 48, (E)-Ethyl 2-(2-(2-Oxo-1,3,4-oxathiazol-5-yl)vinyl)benzoate]: the fraction remaining at 24 h, 50 µM in “physchem [4]” came to 97.7%. In addition, in series [1], the IC50 was greater than 100 µM.

In the series “physchem [6]”, `O=c1oc(/C=C/c2ccccn2)ns1` [compound 54, (E)-5-(2-(Pyridin-2-yl)vinyl)-1,3,4-oxathiazol-2-one] yielded a solubility at 18 h of 64.6 µM (≈ 13.3 µg/mL).

For `O=c1oc(/C=C/c2cccnc2)ns1` [compound 55, (E)-5-(2-(Pyridin-3-yl)vinyl)-1,3,4-oxathiazol-2-one], the solubility at 18 h in “physchem [6]” was 70.6 µM (≈ 14.6 µg/mL). This solubility at 18 h and that of the compound before are within 1.5-fold of each other.

In the series “physchem [6]”, `O=c1nc2c(/C=C/c3nsc(=O)o3)cccn2s1` [compound 56, (E)-5-(2-(2-Oxo-2 H-[1,2,4]thiadiazolo[2,3-a]pyridin-8-yl)vinyl)-1,3,4-oxathiazol-2-one] came in with a solubility at 18 h of 2.4 µM (≈ 0.67 µg/mL).

Take `O=c1oc(/C=C/c2c[nH]c3ccccc23)ns1` [compound 57, 57]: the concentration in solution in the series “physchem [6]” (solubility at 18 h) was 4.1 µM (≈ 1 µg/mL). In series [1], this compound returned an IC50 of 5 µM.

One may read the IC50 as the concentration needed to halve the response being measured. Lower therefore signals greater potency. In general, solubility refers to how much of the substance goes into solution per volume. Low values mean a poorly soluble substance, high ones a readily soluble substance. The fraction remaining is the share of the starting amount still present when the sample was taken. A low value points to a greater loss.
